Laboratory results: patent publication US20090275730A1, “Temperature responsive depsipeptide polymer” (priority 2004, published 2009)

Test: Water solubility and temperature responsibility in aqueous solvent (visual / turbidity)
Excerpt: However, the depsipeptide unit is not considered to be a material which exerts temperature responsibility in an aqueous solvent containing no organic solvent. […] Accordingly, the depsipeptide unit -Gly-X2-Cly-Hmb-Pro-(X2=any α-amino acid residue) is thought to be unsuitable as a temperature responsive material and thus has not been investigated intensively.

Poly[(Gly^1-Val^2-Gly^3-Hmb^4-Ala^5-Pro^6)-co-(Gly^7-Lys(Z)^8-Gly^9-Val^10-Ala^11-Pro^12)]
temperature responsibility in aqueous solvent: temperature responsibility thereof was confirmed
